Measurements from the supplement of paper PMC10307832.

Tests used:
Assay in all cases: relative viability (nuclei count vs DMSO), 5 days (fraction); higher = more cells survive
NCI-H1650 = tested on: NCI-H1650
Procedure, shortened: (§1)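 Cells from lung cancer lines were seeded into 1536-well plates and, one day later, dosed by pin tool. Treatments were either a single drug or a fixed dose of an anchor drug with five library-drug doses (not always all listed) in √10 steps. After 5 days, nuclei were stained in a one-step fixation (final 0.05% Triton X-100, 1% formaldehyde, 1 ug/ml Hoechst) and counted on 4× images, and relative viability is the treated-to-vehicle nuclei ratio, as the median of duplicate plates.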

NCI-H727 = tested on: NCI-H727
Procedure, shortened: as §1

PC-3 [JPC-3] = tested on: PC-3 [JPC-3]
Procedure, shortened: as §1

NCI-H1734 = tested on: NCI-H1734
Procedure, shortened: as §1

NCI-H2347 = tested on: NCI-H2347
Procedure, shortened: as §1

NCI-H1563 = tested on: NCI-H1563
Procedure, shortened: as §1

NCI-H3122 = tested on: NCI-H3122
Procedure, shortened: as §1

NCI-H441 = tested on: NCI-H441
Procedure, shortened: as §1

NCI-H1755 = tested on: NCI-H1755
Procedure, shortened: as §1

LK-2 = tested on: LK-2
Procedure, shortened: as §1

ABC-1 = tested on: ABC-1
Procedure, shortened: as §1

HCC-366 = tested on: HCC-366
Procedure, shortened: as §1

SMILES: Cc1cn(-c2cc(NC(=O)c3ccc(C)c(Nc4nccc(-c5cccnc5)n4)c3)cc(C(F)(F)F)c2)cn1 [Nilotinib] + C[C@@H](Oc1cc(-c2cnn(C3CCNCC3)c2)cnc1N)c1c(Cl)ccc(F)c1Cl [Crizotinib] (partner 1 µM)
- relative viability (NCI-H1650; first compound 0.03162 µM): 0.777
- relative viability (NCI-H1650; first compound 0.1 µM): 0.87
- relative viability (NCI-H727; first compound 0.001 µM): 0.865
- relative viability (NCI-H727; first compound 0.01 µM): 1.05
- relative viability (NCI-H727; first compound 0.03162 µM): 0.575
- relative viability (NCI-H727; first compound 0.1 µM): 0.483
- relative viability (PC-3 [JPC-3]; first compound 0.001 µM): 0.987
- relative viability (PC-3 [JPC-3]; first compound 0.003162 µM): 1.23
- relative viability (PC-3 [JPC-3]; first compound 0.01 µM): 1.06
- relative viability (PC-3 [JPC-3]; first compound 0.03162 µM): 0.882
- relative viability (PC-3 [JPC-3]; first compound 0.1 µM): 0.88
- relative viability (NCI-H1734; first compound 0.001 µM): 0.68
- relative viability (NCI-H1734; first compound 0.003162 µM): 0.659
- relative viability (NCI-H1734; first compound 0.01 µM): 0.717
- relative viability (NCI-H1734; first compound 0.03162 µM): 0.433
- relative viability (NCI-H1734; first compound 0.1 µM): 0.475
- relative viability (NCI-H2347; first compound 0.001 µM): 0.698
- relative viability (NCI-H2347; first compound 0.003162 µM): 0.731
- relative viability (NCI-H2347; first compound 0.01 µM): 0.686
- relative viability (NCI-H2347; first compound 0.03162 µM): 0.629
- relative viability (NCI-H2347; first compound 0.1 µM): 0.853
- relative viability (NCI-H1563; first compound 0.001 µM): 0.772
- relative viability (NCI-H1563; first compound 0.003162 µM): 0.856
- relative viability (NCI-H1563; first compound 0.01 µM): 0.757
- relative viability (NCI-H1563; first compound 0.03162 µM): 0.914
- relative viability (NCI-H1563; first compound 0.1 µM): 0.739
- relative viability (NCI-H3122; first compound 0.001 µM): 0.298
- relative viability (NCI-H3122; first compound 0.003162 µM): 0.314
- relative viability (NCI-H3122; first compound 0.01 µM): 0.33
- relative viability (NCI-H3122; first compound 0.03162 µM): 0.3
- relative viability (NCI-H3122; first compound 0.1 µM): 0.328
- relative viability (NCI-H441; first compound 0.001 µM): 0.728
- relative viability (NCI-H441; first compound 0.003162 µM): 0.825
- relative viability (NCI-H441; first compound 0.01 µM): 0.601
- relative viability (NCI-H441; first compound 0.1 µM): 0.652
- relative viability (NCI-H1755; first compound 0.001 µM): 0.778
- relative viability (NCI-H1755; first compound 0.003162 µM): 0.962
- relative viability (NCI-H1755; first compound 0.01 µM): 1.2
- relative viability (NCI-H1755; first compound 0.03162 µM): 0.666
- relative viability (NCI-H1755; first compound 0.1 µM): 0.745
- relative viability (LK-2; first compound 0.001 µM): 0.244
- relative viability (LK-2; first compound 0.003162 µM): 0.276
- relative viability (LK-2; first compound 0.01 µM): 0.206
- relative viability (LK-2; first compound 0.03162 µM): 0.251
- relative viability (LK-2; first compound 0.1 µM): 0.241
- relative viability (ABC-1; first compound 0.001 µM): 1.16
- relative viability (ABC-1; first compound 0.003162 µM): 1.03
- relative viability (ABC-1; first compound 0.01 µM): 1.5
- relative viability (ABC-1; first compound 0.03162 µM): 0.913
- relative viability (ABC-1; first compound 0.1 µM): 1.34
- relative viability (HCC-366; first compound 0.001 µM): 0.484
- relative viability (HCC-366; first compound 0.003162 µM): 0.627
- relative viability (HCC-366; first compound 0.01 µM): 1.38
- relative viability (HCC-366; first compound 0.03162 µM): 0.389
- relative viability (HCC-366; first compound 0.1 µM): 0.609
